Reference: US9913792B2, “Methods of regulating skin health and appearance with a combination of flavonoid and vitamin B3” (The Procter & Gamble Company, priority 2014, dated 2018)
Where “and” joins values, the source holds several entries; their conditions need not be identical. Identical values can stand only once.

How the values were obtained:
[1] = system: Human dermal fibroblasts; assay: Extracellular acidification rate (ECAR) of fibroblasts after hydrogen peroxide challenge; type: cell-based
Experimental: The effect of a combination of a flavonoid compound, a vitamin B3 compound, and a hydrolyzed silk protein on cellular energy production was assessed by measuring the extracellular acidification rate (“ECAR”) of fibroblasts after exposure to hydrogen peroxide challenge (FIG. 2). ECAR provides an indirect measure of glycolysis. Treatment with hydrogen peroxide replicates stress induced by UV radiation or chemical pollution and decreases the ECAR. An XF Extracellular Flux Analyzer (Seahorse Bioscience, North Billerica, Mass.) was used to detect extracellular acidification rate. Human dermal fibroblasts were plated at 1×10^5 cells per well in a 96-well plate 24 hours prior to testing. The plate was loaded into the analyzer and equilibrated according to the manufacturer's instructions. Hydrogen peroxide, quercetin (Tocris Bioscience), GSS (BioSpectrum) and niacinamide were loaded into an automated injection port of the XF cartridge plate. The analyzer was programmed to sequentially run a two-minute mix cycle and a four-minute measurement cycle continuously for at least 108 minutes. Data points were collected and recorded by the analyzer. The analyzer was allowed to complete three cycles to establish a baseline value for glycolysis prior to being exposed to the peroxide solution. […]
[…] The ECAR was calculated as a percent of pre-treatment baseline. […]

[2] = system: human keratinocytes; assay: Intracellular ATP levels in keratinocytes stressed with H2O2 (ATP Glo luminescence); type: cell-based; conditions: for ATP: luminescent counts; for % Control: ATP
Experimental: The effects of a flavonoid compound, a vitamin B3 compound, a hydrolyzed silk protein and a combination thereof, on intracellular ATP levels were assessed. Keratinocytes were cultured in T150 flasks in EpiLife® medium (MEPICFPRF500, Life Technologies, Grand Island, N.Y.) supplemented with human keratinocyte growth supplement (S-001-5, Life Technologies) and 1% penicillin/streptomycin (15140-122, Life Technologies). When the keratinocytes reached about 70% confluency, they were plated on 96-well plates at a density of 20,000 cells/well. The plates were incubated for 24 hours before the experimental stressor (H2O2) and treatment (niacinamide and/or GSS, Crosilk™ 1000, Crosilk™ Liquid, or HerbEx Silk Peptides) were applied.
The 96-well plate was divided into groups of wells in which (1) no stressor or treatment was applied, (2) stressor was applied but no treatment, and (3) stressor and treatment were applied. For the no stressor or treatment group, the culture medium was simply refreshed. In combination experiments, stressor and two treatments were applied. […] The plates were returned to the CO2 incubator for 90 minutes before ATP was measured.
ATP was measured by removing the media from all treatment groups and controls and replacing the media with ATP Glo® reagent (Promega, Madison, Wis.) per the manufacturer's instructions. After 10 minutes of exposure at room temperature, the luminescence was measured using an EnVision® plate reader (Perkin Elmer, Waltham, Mass.). The luminescent counts that were the output from the measurement were directly proportional to the ATP levels in the cells.
Replicates of each treatment group were averaged together and standard p-value calculations were used (2-sided, equal variance) to calculate significance. In cases where two treatments appeared to synergistically enhance ATP levels, the observed results were compared to the sum of the individual treatment groups to determine significance. The ATP levels measured following treatment are provided below.

[3] = 250 uM Niacinamide + 880 uM H202

Row | SMILES | ECAR as percent of pre-treatment baseline ([1]; 1.75 mM hydrogen peroxide, 3% niacinamide alone) | ATP [2, 3] | ATP ([2]; 0.05% Niacinamide + 800 uM H202, 90 minutes) | % Control [2, 3] | % Control ([2]; 0.05% Niacinamide + 800 uM H202) | rate of glycolysis (ECAR) in stressed cells ([1]; 1.5 mM hydrogen peroxide, 15 uM quercetin, 90 minutes following treatment (FIG. 1))
1 | NC(=O)c1cccnc1 [Niacinamide, niacinamide] | provided a protective effect and increased the ECAR | 85645 and 75045 and 80345 | 185268 | 29.5% | 43.3% | –
2 | O=c1c(O)c(-c2ccc(O)c(O)c2)oc2cc(O)cc(O)c12 [Quercetin, 2-(3,4-dihydroxyphenyl)-3,5,7-trihydroxy-4H-chromen-4-one] | – | – | – | – | – | significantly increase the rate of glycolysis
